This is an account of results in patent US8575158B2, “1-phenyl-substituted heterocyclyl derivatives and their use as prostaglandin D2 receptor modulators” (Actelion Pharmaceuticals Ltd., priority 2010, dated 2013).

The target of this test is T1, hCRTH2 receptor (Homo sapiens, UniProt Q9Y5Y4).
T1 construct: expressed in transfected cells; host or cells: HEK293
T1 sequence (Q9Y5Y4 1-395): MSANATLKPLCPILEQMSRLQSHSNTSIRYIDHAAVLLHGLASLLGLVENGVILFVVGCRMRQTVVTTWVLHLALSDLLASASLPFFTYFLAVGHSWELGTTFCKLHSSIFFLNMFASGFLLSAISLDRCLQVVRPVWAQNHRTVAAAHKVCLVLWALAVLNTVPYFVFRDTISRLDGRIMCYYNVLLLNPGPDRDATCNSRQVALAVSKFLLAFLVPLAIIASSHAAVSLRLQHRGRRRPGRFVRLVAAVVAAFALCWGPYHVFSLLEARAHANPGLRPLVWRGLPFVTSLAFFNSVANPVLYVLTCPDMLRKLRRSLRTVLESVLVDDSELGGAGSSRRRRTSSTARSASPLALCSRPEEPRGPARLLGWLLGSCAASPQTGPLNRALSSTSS
Briefly: Radioligand displacement assay (3H-PGD2) on hCRTH2 receptor membranes. To be noted: antagonistic activity. The format is binding. (In general: In a radioligand displacement assay an active substance lowers the binding of a labelled ligand.)

Where [1] appears, read: 3H-PGD2 radioligand displacement, HEK293-hCRTH2 membranes.
Setting [2] is: radioligand displacement (3H-PGD2), hCRTH2 receptor membranes.
Setting [3] is: 3H-PGD2 displacement on HEK293-hCRTH2 membrane fragments.

For orientation: IC50 means the concentration at which inhibition is half-maximal. A low value points to greater potency in that assay.

`O=C(O)COc1ccc(F)cc1C1c2cc(-c3ccc(F)cc3)ccc2CCN1C(=O)OCc1ccccc1` (racemic) [Example 497]: the IC50 under setting [1] was found to be 793 nM.
The compound `O=C(OCc1ccccc1)N1CCc2ccccc2C1c1cc(Cl)ccc1OCc1nnn[nH]1` (stereo not drawn) [Example 570, (γ)-1-[5-Chloro-2-(1H-tetrazol-5-ylmethoxy)-phenyl]-3,4-dihydro-1H-isoquinoline-2-carboxylic acid benzyl ester] registered an IC50 under setting [2] of 355 nM.
Take `C[C@H](Oc1ccc(F)cc1[C@@H]1c2ccccc2CCN1C(=O)OCc1ccccc1)C(=O)O` [Example 28, (S)-1-[2-((S)-1-Carboxy-ethoxy)-5-fluoro-phenyl]-3,4-dihydro-1H-isoquinoline-2-carboxylic acid benzyl ester]: the IC50 under setting [3] stood at 443 nM.
As for `O=C(O)COc1ccc(Cl)cc1C1c2ccccc2CCN1C(=O)CCOc1cccc(F)c1` (racemic) [Example 87, (±)-(4-Chloro-2-{2-[3-(3-fluoro-phenoxy)-propionyl]-1,2,3,4-tetrahydro-isoquinolin-1-yl}-phenoxy)-acetic acid], the IC50 under setting [3] came to 17.8 nM. Against the preceding compound, the IC50 is about 25-fold lower.
Still for that read-out and setting: next, `O=C(O)COc1ccc(Cl)cc1C1c2ccccc2CCN1C(=O)Cc1csc2ccc(Cl)cc12` (racemic) [Example 98, (±)-(4-Chloro-2-{2-[2-(5-chloro-benzo[b]thiophen-3-yl)-acetyl]-1,2,3,4-tetrahydro-isoquinolin-1-yl}-phenoxy)-acetic acid]: 124 nM.
On the same count and under the same terms, the result for `O=C(O)COc1ccc(F)cc1C1c2ccccc2CCN1C(=O)CCc1ccc(Cl)cc1` (racemic) [Example 133, (±)-(2-{2-[3-(4-Chloro-phenyl)-propionyl]-1,2,3,4-tetrahydro-isoquinolin-1-yl}-4-fluoro-phenoxy)-acetic acid] reads 126 nM.
The same measure, in the same setting: the result for `O=C(O)COc1ccc(Cl)cc1C1c2ccccc2CCN1C(=O)[C@@H]1C[C@H]1c1ccccc1Cl` (relative stereo) [Example 82, (4-Chloro-2-{2-[trans-2-(2-chloro-phenyl)-cyclopropanecarbonyl]-1,2,3,4-tetrahydro-isoquinolin-1-yl}-phenoxy)-acetic acid] reads 4.8 nM.
Under setting [2], `O=C(OCc1ccccc1)N1CCc2ccccc2[C@H]1c1cc(Cl)ccc1OCc1n[nH]c(=O)o1` [Example 571, (S)-1-[5-Chloro-2-(5-oxo-4,5-dihydro-[1,3,4]oxadiazol-2-ylmethoxy)-phenyl]-3,4-dihydro-1H-isoquinoline-2-carboxylic acid benzyl ester] displayed an IC50 of 55 nM.
`O=C(O)COc1ccc(Cl)cc1C1c2ccccc2CCN1C(=O)CCc1ccccc1C(F)(F)F` (racemic) [Example 90, (±)-(4-Chloro-2-{2-[3-(2-trifluoromethyl-phenyl)-propionyl]-1,2,3,4-tetrahydro-isoquinolin-1-yl}-phenoxy)-acetic acid] yielded an IC50 under setting [3] of 45.8 nM.
On the same count and under the same terms, the result for `COc1ccccc1CNC(=S)N1CCc2ccccc2C1c1cc(Cl)ccc1OCC(=O)O` (racemic) [Example 225, (±)-{4-Chloro-2-[2-(2-methoxy-benzylthiocarbamoyl)-1,2,3,4-tetrahydro-isoquinolin-1-yl]-phenoxy}-acetic acid] reads 76.5 nM; that for `Cc1ccccc1C1CC1C(=O)N1CCc2ccccc2C1c1cc(Cl)ccc1OCC(=O)O` (single isomer, unassigned) [Example 154, (±)-{4-Chloro-2-[2-((trans)-2-o-tolyl-cyclopropanecarbonyl)-1,2,3,4-tetrahydro-isoquinolin-1-yl]-phenoxy}-acetic acid (diastereosiomer 2)], 4.83 nM.
As to `CC[C@@H]1C[C@H]1C(=O)N1CCc2ccccc2[C@H]1c1cc(Cl)ccc1OCC(=O)O` [Example 460], under setting [1], the IC50 turned out to be 67.8 nM.
The same measure, in the same setting: next, `O=C(O)COc1ccc(Cl)cc1C1c2ccccc2CCN1C(=O)CCN1CCCc2ccccc21` (racemic) [Example 449]: 26.1 nM; `O=C(O)COc1ccc(Cl)cc1C1c2ccccc2CN1C(=O)NCCc1ccccc1` (racemic) [Example 556]: 11.7 nM; `O=C(O)COc1ccc(Cl)cc1C1c2ccccc2CCN1C(=O)CCn1ccc2ncc(Cl)nc21` (racemic) [Example 404]: 42.6 nM.
The compound `CS(=O)(=O)c1ccc(OCC(=O)O)c(C2c3ccccc3CCN2C(=O)OCc2ccccc2)c1` (racemic) [Example 182] came in with an IC50 under setting [3] of 308 nM. In other words, the sub-micromolar range.
Under setting [2], `O=C(O)COc1ccc(Cl)cc1[C@@H]1c2ccccc2CCN1C(=O)[C@H]1C[C@@H]1c1ccccc1C(F)(F)F` [Example 563, (4-Chloro-2-{(S)-2-[(1S,2S)-2-(2-trifluoromethyl-phenyl)-cyclopropanecarbonyl]-1,2,3,4-tetrahydro-isoquinolin-1-yl}-phenoxy)-acetic acid] registered a concentration for half-maximal inhibition (IC50) of 264 nM.
Compound `Cc1cn(CC(=O)N2CCc3ccccc3C2c2cc(Cl)ccc2OCC(=O)O)c2ccccc12` (racemic) [Example 488] gave an IC50 under setting [1] of 108 nM. This lies in the sub-micromolar range.
The compound `O=C(O)COc1ccc(Cl)cc1[C@@H]1c2ccc(F)c(F)c2CCN1C(=O)OCc1nccs1` [Example 299, (S)-1-(2-Carboxymethoxy-5-chloro-phenyl)-5,6-difluoro-3,4-dihydro-1H-isoquinoline-2-carboxylic acid thiazol-2-ylmethyl ester] came in with an IC50 under setting [1] of 6.83 nM.
For `O=C(O)COc1ccc(Cl)cc1C1c2ccccc2CCN1C(=O)C1CC1c1ccccc1C(F)(F)F` (single isomer, unassigned) [Example 156, (±)-(4-Chloro-2-{2-[(trans)-2-(2-trifluoromethyl-phenyl)-cyclopropanecarbonyl]-1,2,3,4-tetrahydro-iso-quinolin-1-yl}-phenoxy)-acetic acid (diatereoisomer 2)], the 50% inhibitory concentration (IC50) under setting [3] is 14.2 nM.
The compound `O=C(O)COc1ccc(Cl)cc1C1c2ccccc2CCN1C(=O)COc1ccccc1` (racemic) [Example 409] had an IC50 under setting [1] of 74 nM.
Under setting [3], `O=C(O)COc1ccc(F)cc1C1c2ccccc2CCN1C(=O)Cc1ccc2ncccc2c1` (racemic) [Example 49, (±)-{4-Fluoro-2-[2-(2-quinolin-6-yl-acetyl)-1,2,3,4-tetrahydro-isoquinolin-1-yl]-phenoxy}-acetic acid] yielded a 50% inhibitory concentration (IC50) of 35.7 nM.
`Cc1ncc(COC(=O)N2CCc3cc(F)ccc3[C@H]2c2cc(Cl)ccc2OCC(=O)O)s1` [Example 328, (S)-1-(2-Carboxymethoxy-5-chloro-phenyl)-6-fluoro-3,4-dihydro-1H-isoquinoline-2-carboxylic acid 2-methyl-thiazol-5-ylmethyl ester] registered an IC50 under setting [1] of 3.2 nM.
Compound `O=C(O)COc1ccc(Cl)cc1C1c2ccccc2CN1C(=O)CCOc1ccccc1F` (racemic) [Example 522] displayed an IC50 under setting [1] of 11.7 nM.
For the compound `O=C(O)COc1ccc(Cl)cc1C1c2ccccc2CCN1C(=O)OCc1cccc(Cl)c1Cl` (racemic) [Example 242], the IC50 under setting [3] is 1.07 nM.
The compound `O=C(O)COc1ccc(Cl)cc1C1c2ccccc2CN1C(=O)C1CC1c1ccccc1` (stereo not drawn) [Example 503, {4-Chloro-2-[2-trans-(2-phenyl-cyclopropanecarbonyl)-2,3-dihydro-1H-isoindol-1-yl]-phenoxy}-acetic acid] registered an IC50 under setting [1] of 11.2 nM.
Compound `O=C(O)COc1ccc(Cl)cc1C1c2ccccc2CCN1C(=O)[C@@H]1C[C@H]1c1ccc(Cl)cc1Cl` (mixture of isomers) [Example 158] came in with an IC50 under setting [3] of 37.6 nM.
Compound `O=C(O)COc1ccc(Cl)cc1[C@@H]1c2ccc(F)cc2CCN1C(=O)OCn1ncc2ccccc21` [Example 347, (S)-1-(2-Carboxymethoxy-5-chloro-phenyl)-6-fluoro-3,4-dihydro-1H-isoquinoline-2-carboxylic acid indazol-1-ylmethyl ester] gave an IC50 under setting [1] of 0.87 nM.
`O=C(O)COc1ccc(Cl)cc1[C@@H]1c2ccccc2CCN1C(=O)OCc1cccc(F)c1` [Example 355, (S)-1-(2-Carboxymethoxy-5-chloro-phenyl)-3,4-dihydro-1H-isoquinoline-2-carboxylic acid 3-fluoro-benzyl ester] gave an IC50 under setting [1] of 2.01 nM.
Still for that read-out and setting: next, `O=C(O)COc1ccc(Cl)cc1C1c2ccccc2CCN1C(=O)CCn1ccc2cc(Cl)ccc21` (racemic) [Example 385]: 51.2 nM.
Under setting [3], `N#Cc1ccc(OCC(=O)O)c(C2c3ccc(F)c(F)c3CCN2C(=O)OCc2ccccc2)c1` (racemic) [Example 16, (±)-1-(2-Carboxymethoxy-5-cyano-phenyl)-5,6-difluoro-3,4-dihydro-1H-isoquinoline-2-carboxylic acid benzyl ester] showed a half-maximal inhibitory concentration (IC50) of 4.34 nM.
For the compound `Cc1cc(COC(=O)N2CCc3ccccc3[C@H]2c2cc(Cl)ccc2OCC(=O)O)on1` [Example 279, (S)-1-(2-Carboxymethoxy-5-chloro-phenyl)-3,4-dihydro-1H-isoquinoline-2-carboxylic acid 3-methyl-isoxazol-5-ylmethyl ester], under setting [3], the IC50 was 0.87 nM.
Under setting [1], `O=C(O)COc1ccc(Cl)cc1[C@@H]1c2ccc(F)cc2CCN1C(=O)OCc1cncnc1` [Example 334, (S)-1-(2-Carboxymethoxy-5-chloro-phenyl)-6-fluoro-3,4-dihydro-1H-isoquinoline-2-carboxylic acid pyrimidin-5-ylmethyl ester] had an IC50 of 4.95 nM. In other words, the single-digit nanomolar range.
As for `CC(C)COCCC(=O)N1CCc2ccccc2C1c1cc(Cl)ccc1OCC(=O)O` (racemic) [Example 450], the IC50 under setting [1] turned out to be 403 nM. This IC50 is about 81-fold higher than that of the compound before.
In the case of `O=C(O)COc1ccc(Cl)cc1C1c2ccccc2CCN1C(=O)[C@@H]1C[C@H]1c1ccccc1C(F)(F)F` (mixture of isomers) [Example 423], under setting [1], the concentration for half-maximal inhibition (IC50) is 6.62 nM.
On to `CN(CC(=O)N1CCc2ccccc2C1c1cc(F)ccc1OCC(=O)O)S(=O)(=O)c1ccccc1` (racemic) [Example 210], for which, under setting [3], the IC50 turned out to be 423 nM.
